Measurements taken from patent US20210317072A1, “H2O CRYSTAL FORMS OF A TCA CYCLE INTERMEDIATE CONJUGATE” (IMBRIA PHARMACEUTICALS, INC., priority 2020, published 2021).

Legend:
Type in all cases: physicochemical
[1] = Slurry conversion at 50° C., solids isolated for XRPD analysis
Description: (§1) For with Type A, polymorph screening experiments were set up under 32 conditions using methods of solid vapor diffusion, slurry conversion at room temperature, slurry conversion at 50° C., and temperature cycling. Polymorph screening experiments were performed using different crystallization or solid transition methods.
(§2) Slurry conversion experiments were conducted at room temperate and at 50° C. in different solvent systems. Solids were isolated for XRPD analysis.

[2] = Temperature cycling polymorph screening; details: summary of 6 experiments
Description: as §1

[3] = Polymorph screening under 32 conditions / form stability
Text: A comprehensive polymorph screening for a TCA intermediate conjugated to an amino acid which has the structure of Formula (X) was undertaken. The TCA conjugate starting material was characterized by X-ray powder diffraction (XRPD). […] One unique XRPD patterns was observed, which was Type A. Type A is a stable Type At the ambient temperature and humidity.
as §1

[4] = Slurry conversion at room temperature, solids isolated for XRPD analysis
Description: as §1, §2

[5] = Solid vapor diffusion, precipitates isolated for XRPD analysis
Description: as §1
Solid vapor diffusion experiments were conducted in different solvent conditions. The precipitates were isolated for XRPD analysis.

N[C@@H](COC(=O)CCC(=O)O)C(=O)O [Type A]
Solid Form ([1]; slurry at 50° C., 1,4-dioxane (exp. 818135-05-A6)): Type A | Solid Form ([1]; slurry at 50° C., 2-Me THF (exp. 818135-05-A3)): Type A | Solid Form ([1]; slurry at 50° C., CHCL3 (exp. 818135-05-A7)): Type A | Solid Form ([1]; slurry at 50° C., EtOAc (exp. 818135-05-A2)): Type A | Solid Form ([1]; slurry at 50° C., EtOH (exp. 818135-05-A1)): Type A | Solid Form ([1]; slurry at 50° C., MEK (exp. 818135-05-A5)): Type A | Solid Form ([1]; slurry at 50° C., Toluene (exp. 818135-05-A9)): Type A | Solid Form ([1]; slurry at 50° C., n-heptane (exp. 818135-05-A4)): Type A + peak | Crystal Type ([1]; slurry at 50° C., summary of 9 experiments): Type A, Type A + peak | Crystal Type [2]: Type A, Type A + peak | Stability of the crystal form ([3]; ambient temperature and humidity): stable | Crystal Type ([3]; total, all 32 screening experiments): Type A, Type A + peak | Solid Form ([4]; Acetone (exp. 818135-04-A2)): Type A | Solid Form ([4]; CAN (exp. 818135-04-A5)): Type A + peak | Solid Form ([4]; DCM (exp. 818135-04-A6)): Type A + peak | Solid Form ([4]; H2O (exp. 818135-04-A7)): Type A | Solid Form ([4]; IPAc (exp. 818135-04-A3)): Type A + peak | Solid Form ([4]; MTBE (exp. 818135-04-A4)): Type A + peak | Solid Form ([4]; MeOH (exp. 818135-04-A1)): Type A | Solid Form ([4]; THF/H2O (0.87:0.13, aW~0.8) (exp. 818135-04-A11)): Type A | Solid Form ([4]; THF/H2O (0.924:0.076, aW~0.6) (exp. 818135-04-A10)): Type A | Solid Form ([4]; THF/H2O (0.956:0.044, aW~0.4) (exp. 818135-04-A9)): Type A + peak | Solid Form ([4]; THF/H2O (0.98:0.02, aW~0.2) (exp. 818135-04-A8)): Type A | Crystal Type ([4]; summary of 11 experiments): Type A, Type A + peak | Solid Form ([5]; anti-solvent Acetone (exp. 818135-06-A5)): Type A | Solid Form ([5]; anti-solvent DCM (exp. 818135-06-A1)): Type A | Solid Form ([5]; anti-solvent DMSO (exp. 818135-06-A4)): Type A | Solid Form ([5]; anti-solvent EtOH (exp. 818135-06-A2)): Type A | Solid Form ([5]; anti-solvent H2O (exp. 818135-06-A6)): Type A | Solid Form ([5]; anti-solvent THF (exp. 818135-06-A3)): Type A | Crystal Type ([5]; summary of 6 experiments): Type A
